The structures appear in SMILES notation. Entries after “also recorded” stand apart in the source; their conditions may differ.

In one assay the test system is TAK1. The experiment in a line: Western blot of phospho-TAK1. It counts as cell-based, human. As for the experimental part: Cell lysates were prepared using RIPA buffer with the addition of Halt Protease and Phosphatase Inhibitor Cocktails. Gel electrophoresis and transfer was performed using the BioRad MiniProtean System according to manufacturer's instructions. Phospho-TAK1 was detected using the combination of Rabbit anti-Phospho-TAK1 and anti-Rabbit IgG, HRP linked primary and secondary antibodies respectively.

In assay [1] the test system is A549 lung adenocarcinoma cells. The experiment in a line: DNA damage response, γH2AX confocal immunofluorescence. It counts as cell-based, human. The note with it: 24 hr carboplatin, increasing concentrations. As for the experimental part: DNA damage induced by platinum was visualised by confocal immunofluorescence microscopy. A549 lung adenocarcinoma cells were treated with appropriate primary and secondary antibodies to visualise γH2AX and the DNA counterstain DAPI following 24 hr treatment with increasing concentrations of carboplatin.

The test system of assay [2] is A549 lung adenocarcinoma cell line. The experiment in a line: Innate platinum responsiveness, Alamar Blue viability over carboplatin concentrations. It counts as cell-based, human. Particulars: chemonaive A549, 3 days. On the procedure: The A549 lung adenocarcinoma cell line was originally derived from a smoker prior to treatment with chemotherapy. This chemonaive cell line carrying a common KRAS mutation was chosen as the primary cell line for modelling innate platinum responsiveness. Platinum responsiveness of A549 lung adenocarcinoma cell line was assessed against a wide range of carboplatin concentrations. […] 10,000 cells per well were plated in to a 96 well plate. […] Plates are left to incubate for 3 days with an Alamar Blue reading performed at end point. Curves of cell death in response to the respective alkylating agent were generated by graphing fluorescence (as a measure of cell viability) vs the alkylating agent concentration.

The test system of a further assay is A549 flank xenografts. Kind of assay: In vivo modelling of platinum resistance, xenograft. Details: species or system athymic nude mice. The note with it: carboplatin 60 mg/kg day 0 or 2 μg FST day −1, +1, +3, +5, intraperitoneally. As for the experimental part:
Follistatin (FST) is a molecule that is known for its role in regulating the activities of TGFβ superfamily members, including activin and GDF11, both of which were identified as important players in chemoresistance of non-small cell lung carcinoma (NSCLC) cells (see Example 2). Therefore, the effects of FST on inducing sensitization of NSCLC cells to platinum therapy were assessed in an in vivo xenograft model. Athymic nude mice bearing A549 flank xenografts were treated with combinations of vehicle control, 60 mg/kg carboplatin on day 0, and/or 2 μg FST on day -1, +1, +3 and +5. Five mice were randomized in to each of the treatment groups and treatments started when the tumour size was 200 mm^3. Tumour volumes were measured daily and the animals were culled when the tumour size reached over 500 mm^3. Athymic nude mice bearing A549 flank xenografts were treated with combinations of vehicle control, 60 mg/kg carboplatin on day 0, and/or 2 μg FST on day -1, +1, +3 and +5 administered intraperitoneally. Recombinant human Follistatin 288 (FST) was used in all experiments. FST was provided by […] Biosciences Ltd.

The next assay deals with LX22CL cells. The experiment in a line: Innate platinum responsiveness, Alamar Blue viability over carboplatin concentrations. It counts as cell-based, human. The note with it: chemonaive SCLC line LX22CL, 3 days.
A further assay relates to NCI-H358. The experiment in a line: Sensitization of cells to platinum with TGFBR1 and ACVR1B inhibitor. The note with it: NCI-H358, 5 μM SB-505124 pre-treatment 24 hours, then carboplatin 3 days. It counts as cell-based, human. As for the experimental part:
(§1) 5000 cells per well were plated in quadruplicates in RPMI with 1% heat-inactivated NCS (HiNCS) and Glutamax and allowed to adhere overnight. Media was then removed and either vehicle or 5 μM SB-505124 was added and incubated for 24 hours. Media was then removed and replaced with media containing increasing concentrations of carboplatin with either vehicle or 5 μM SB-505124. After 3 days of incubation Alamar Blue was added and plates were incubated for 2.5 hours before being read using Fluostar Optima Plate Reader.

For assay [3], the system named is A549 lung adenocarcinoma cells. Kind of assay: Sensitization of cells to platinum/alkylating agent with TGFBR1 and ACVR1B inhibitor. It counts as cell-based, human. On the procedure: 10,000 cells per well were plated in to a 96 well plate. […] Plates are left to incubate for 3 days with an Alamar Blue reading performed at end point.
as §1

The conditions of assay [4]: background statement; cited from earlier work.

For the compound `N.N.O=C([O-])C1(C(=O)[O-])CCC1.[Pt+2]` [carboplatin], in the assay on TAK1 (cells treated with carboplatin), the “phosphorylated TAK1 (activated form) levels” value was “upregulated”. In addition, the “DNA damage (γH2AX)” value in assay [1] was “effect DNA damage, at much lower concentrations than is required to induce cell death”. In addition, the entries for the “platinum responsiveness (survival against carboplatin concentration)” value (in assay [2]; with LX22CL cells) were “exhibits an active resistance mechanism” and “shows sensitivity to carboplatin”, respectively. Moreover, in the assay on A549 flank xenografts, the “tumour growth, agent alone” value is “did not affect tumour growth”.

Take `Cc1cccc(-c2[nH]c(C(C)(C)C)nc2-c2ccc3c(c2)OCO3)n1` [SB-505124]: the “sensitization to platinum (carboplatin)” value is “showed sensitization to platinum; also recorded: sensitized” in the assay on NCI-H358 and “induced sensitization to platinum; also recorded: sensitized” in assay [3] (A549, 5 μM SB-505124 pre-treatment 24 hours, then carboplatin 3 days). Besides, the “activation of TAK1 (phosphorylated TAK1 level)” value in the assay on TAK1 (A549 and NCI-H358 cells, SB-505124 pre-treatment then carboplatin) is listed as “inhibited the activation of TAK1”. For the same compound, the sensitization to busulfan result in assay [3] (A549, SB-505124 pre-treatment then busulfan range) is on record as “showed sensitization”. Besides, the sensitization to cisplatin result in assay [3] (A549, SB-505124 pre-treatment then cisplatin range) is on record as “showed sensitization”.

Take `N.N.[Cl][Pt][Cl]` [trans-DDP, trans-diamminedichloroplatinum (II)]: in assay [4], the activity against tumours entry is listed as “ineffective against tumours”.

The values above are taken from US20200023038A1, “METHOD OF TREATING NEOPLASIAS” (PARANTA BIOSCIENCES LIMITED, priority 2015, published 2020).
